Reference: US6194441A, “Oxazolidinone derivatives and their use as antibacterial agents” (Zeneca Ltd., priority 1997, dated 2001)
Values after ≈ are worked out from the molar mass of the structure shown. Structures can show the parent of a compound that is named as a salt.

Columns and labels:
Enterococcus faecalis = assay: MIC by agar-dilution technique, E. faecalis; type: cell-based; conditions: IsoSensitest agar, inoculum 10^4 CFU/spot, 37° C., 24 hours
Description: (§1) The following results were obtained on a standard in vitro test system. The activity is described in terms of the minimum inhibitory concentration (MIC) determined by the agar-dilution technique with an inoculum size of 10^4 CFU/spot.
(§2) The organisms were tested on a standard semi-defined susceptability test medium (IsoSensitest agar), using an inoculum of 10^4 CFU/spot and an incubation temperature of 37° C. for 24 hours. Typically, compounds are active in the range 0.01 to 128 μg/ml.

[1] = tested on: Staphylococcus aureus MRQR; assay: MIC by agar-dilution technique, S. aureus MRQR; type: cell-based; conditions: IsoSensitest agar, inoculum 10^4 CFU/spot, 37° C., 24 hours, methicillin resistant quinolone resistant
Description: as §1, §2

[2] = tested on: Staphylococcus aureus Novb. Res.; assay: MIC by agar-dilution technique, S. aureus novobiocin resistant; type: cell-based; conditions: 24 h
Description: as §1, §2

[3] = tested on: Coagulase Negative Staphylococci MR; assay: MIC by agar-dilution technique, coagulase negative staphylococci MR; type: cell-based; conditions: IsoSensitest agar, inoculum 10^4 CFU/spot, 37° C., 24 hours, methicillin resistant
Description: as §1, §2

[4] = tested on: Streptococcus pyogenes C203; assay: MIC by agar-dilution technique, S. pyogenes C203; type: cell-based; conditions: IsoSensitest agar, inoculum 10^4 CFU/spot, 37° C., 24 hours
Description: as §1, §2

[5] = tested on: Staphylococcus aureus Oxford; assay: MIC by agar-dilution technique, S. aureus Oxford; type: cell-based; conditions: IsoSensitest agar, inoculum 10^4 CFU/spot, 37° C., 24 hours, Oxford strain
Description: as §1, §2

[6] = tested on: Coagulase Negative Staphylococci MS; assay: MIC by agar-dilution technique, coagulase negative staphylococci MS; type: cell-based; conditions: IsoSensitest agar, inoculum 10^4 CFU/spot, 37° C., 24 hours, methicillin sensitive
Description: as §1, §2

Bacillus subtilis = assay: MIC by agar-dilution technique, B. subtilis; type: cell-based; conditions: IsoSensitest agar, inoculum 10^4 CFU/spot, 37° C., 24 hours
Description: as §1, §2

Solubility in water = type: physicochemical; conditions: dihydrochloride salt

Compound | MIC (Enterococcus faecalis) | MIC [1] | MIC [2] | MIC [3] | MIC [4] | MIC [5] | MIC [6] | MIC (Bacillus subtilis) | solubility (Solubility in water)
CC(=O)NC[C@H]1CN(c2ccc(-n3cnc(C=CC#N)c3)c(F)c2)C(=O)O1 [Example 2] | 0.25 µg/mL (≈ 0.677 µM) | 1 µg/mL (≈ 2.71 µM) | 0.25 µg/mL (≈ 0.677 µM) | 0.25 µg/mL (≈ 0.677 µM) | 0.125 µg/mL (≈ 0.338 µM) | 0.125 µg/mL (≈ 0.338 µM) | 0.06 µg/mL (≈ 0.162 µM) | 0.25 µg/mL (≈ 0.677 µM) | 
CC(=O)NC[C@H]1CN(c2ccc(-n3cnc(/C=C/c4ccccn4)c3)c(F)c2)C(=O)O1 [Example 11 dihydrochloride salt, N-[(5S)-3-(3-Fluoro-4-(4-(E-2-(Pyrid-2-yl)ethenyl)imidazol-1-yl)phenyl)-2-oxooxazolidin-5-ylmethyl]acetamide] |  |  |  |  |  |  |  |  | ~10000 µg/mL
